BindingDB's records for doi:10.1007/s00044-011-9938-0 (n/a, 2012)

Molecular target: Alpha-glucosidase MAL62 (Saccharomyces cerevisiae, UniProt P07265)
Test: Inhibition of baker's yeast alpha-glucosidase using p-nitrophenyl-alpha-D-glucopyranoside as substrate by spectrophotometry

Sequence of Alpha-glucosidase MAL62 (P07265 whole entry): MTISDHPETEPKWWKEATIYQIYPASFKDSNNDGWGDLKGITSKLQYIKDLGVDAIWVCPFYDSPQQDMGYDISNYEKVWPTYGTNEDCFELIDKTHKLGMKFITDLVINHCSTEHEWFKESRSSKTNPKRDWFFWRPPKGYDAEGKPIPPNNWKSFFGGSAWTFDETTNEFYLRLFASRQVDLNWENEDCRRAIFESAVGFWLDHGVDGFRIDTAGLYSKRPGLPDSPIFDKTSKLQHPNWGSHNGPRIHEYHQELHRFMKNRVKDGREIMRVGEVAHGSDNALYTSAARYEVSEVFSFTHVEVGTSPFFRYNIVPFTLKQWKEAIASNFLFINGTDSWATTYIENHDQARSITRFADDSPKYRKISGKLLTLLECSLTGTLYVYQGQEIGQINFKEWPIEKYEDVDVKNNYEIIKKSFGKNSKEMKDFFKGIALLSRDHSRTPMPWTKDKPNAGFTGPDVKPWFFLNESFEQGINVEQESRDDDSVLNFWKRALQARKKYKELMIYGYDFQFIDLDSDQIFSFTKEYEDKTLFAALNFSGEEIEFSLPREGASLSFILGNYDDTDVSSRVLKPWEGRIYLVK

SMILES	IC50
OC[C@H]1OC(OC2=C(c3ccc(O)c(O)c3)Oc3cc(O)cc(O)c3C2)[C@@H](O)[C@@H](O)[C@@H]1O (stereo partly drawn)	20 µM
O=C(O)/C=C/c1ccc(Cl)cc1 [CHEBI:61116]	390 µM
C=C(C)C(CC=C(C)C)Cc1c(O)cc(O)c2c1OC(c1ccccc1O)CC2=O (stereo not drawn)	45 µM
O=c1c(-c2ccc(O)cc2)coc2cc(O)ccc12	14 µM
O=C(O)/C=C/c1ccc(Oc2ccccc2)cc1	440 µM
C=C(C)C(CC=C(C)C)Cc1c(O)cc(O)c2c1OC(c1ccc(O)cc1O)CC2=O (stereo not drawn)	37 µM
CCOC(=O)/C=C/c1ccc(OC)cc1 [4-Methoxy Ethyl Cinnamate]	50 µM
CC1(C)C=Cc2cc(C(=O)/C=C/c3ccc(O)cc3)c(O)cc2O1 [4-HYDROXYISOLONCHOCARPIN]	12.3 µM
O=c1c(-c2ccc(O)cc2)coc2cc(O)cc(O)c12 [Prunetol]	7 µM
C=CC(C)(C)c1cc2c(cc1O)OC(c1cc(O)c(O)c(CC=C(C)C)c1C/C=C\C)CC2 (stereo not drawn)	10.6 µM
O=c1c(O)c(-c2ccc(O)c(O)c2)oc2cc(O)cc(O)c12 [2-(3,4-dihydroxyphenyl)-3,5,7-trihydroxy-chromone;hydrate]	7 µM
COc1ccc(/C=C/C(=O)O)cc1 [3-(4-methoxyphenyl)acrylic acid]	40 µM
CC(C)=CCc1cc(C2CCc3ccc(O)cc3O2)cc(O)c1O (stereo not drawn) [5-(7-Hydroxy-chroman-2-yl)-3-(3-methyl-but-2-enyl)-benzene-1,2-diol]	75.7 µM
C=CC(C)(C)c1c(O)cc(O)c2c(=O)c3oc4c5c(c(OCC=C(C)C)cc4c3oc12)OC(C)(C)C=C5	27.6 µM
COc1ccc([C@@H]2CC(=O)c3c(O)cc(O)cc3O2)cc1O [(2S)-5,7-dihydroxy-2-(3-hydroxy-4-methoxyphenyl)-3,4-dihydro-2H-1-benzopyran-4-one]	150 µM
O=C(O[C@@H]1Cc2c(O)cc(O)cc2O[C@@H]1c1cc(O)c(O)c(O)c1)c1cc(O)c(O)c(O)c1 [epigallocatechin gallate]	2 µM
O=c1c(O)c(-c2cc(O)c(O)c(O)c2)oc2cc(O)cc(O)c12	5 µM
CC(C)=CCc1c(C2CCc3ccc(O)cc3O2)cc2c(c1O)OC(C)(C)C=C2 (stereo not drawn)	26.3 µM
O=C(O)/C=C/c1cccc(O)c1 [(2E)-3-(3-hydroxyphenyl)prop-2-enoic acid]	1270 µM
CC(C)=CCc1cc(C2CCc3ccc(O)cc3O2)c(CC=C(C)C)c(O)c1O (stereo not drawn)	12 µM
O=C(O)/C=C/c1ccc(O)cc1 [p-Coumaric Acid]	200 µM
Oc1cc(O)c2c(c1)O[C@H](c1cc(O)c(O)c(O)c1)[C@H](O)C2 [CHEBI:71224]	75 µM

SMILES	IC50
O=c1cc(-c2ccc(O)c(O)c2)oc2cc(O)cc(O)c12 [2-(3,4-dihydroxyphenyl)-5,7-dihydroxy-4H-chromen-4-one]	21 µM
C=C(C)C(CC=C(C)C)Cc1c(O)cc(OC)c2c1OC(c1ccc(OC)cc1O)CC2=O (stereo not drawn)	155 µM
O=C1C[C@@H](c2ccc(O)cc2)Oc2cc(O)cc(O)c21	75 µM
CC(C)=CCc1cc(C(=O)/C=C/c2ccc(O)c(O)c2)c(O)cc1O [broussochalcone A]	5.3 µM
O=C(O)c1cc(O)c(O)c(O)c1 [Gallic Acid, F]	5.2 µM
C=CC(C)(C)c1c(O)cc(O)c2c(=O)c3oc4c(CC=C(C)C)c(O)c(OCC=C(C)C)cc4c3oc12	33.3 µM
C=CC(C)(C)c1c(O)cc(O)c2c(=O)c(O)c(-c3cc(O)c(O)c(CC=C(C)C)c3)oc12 [2-[3,4-Dihydroxy-5-(3-methyl-but-2-enyl)-phenyl]-8-(1,1-dimethyl-allyl)-3,5,7-trihydroxy-chromen-4-one]	3.6 µM
OC[C@H]1OC(OC2=C(c3cc(O)c(O)c(O)c3)Oc3cc(O)cc(O)c3C2)[C@@H](O)[C@@H](O)[C@@H]1O (stereo partly drawn)	30 µM
C=C(C)C(CC=C(C)C)Cc1c(O)cc(OC)c2c1OC(c1ccc(O)cc1O)CC2=O (stereo not drawn)	68.1 µM
O=c1c(O)c(-c2ccc(O)cc2O)oc2cc(O)cc(O)c12 [2-(2,4-dihydroxyphenyl)-3,5,7-trihydroxychromen-4-one]	40 µM
CC(C)=CCc1cc(-c2oc3cc(O)c(CC=C(C)C)c(O)c3c(=O)c2O)cc(O)c1O [CHEBI:66727]	2.1 µM
O=C(O)/C=C/c1ccc(F)cc1	270 µM
O=c1c(O)c(-c2ccc(O)c(O)c2)oc2cc(O)ccc12 [2-(3,4-dihydroxyphenyl)-3,7-dihydroxy-chromen-4-one]	13 µM
Oc1cc(O)c2c(c1)O[C@H](c1ccc(O)c(O)c1)[C@@H](O)C2 [CHEBI:23053]	130 µM
O=c1cc(O)cc2oc(-c3ccc(O)c(O)c3)c(O)cc1-2	4 µM
COc1cccc(/C=C/C(=O)O)c1	579 µM
C=C(C)C(CCC(C)(C)O)Cc1c(O)cc(OC)c2c1OC(c1ccc(O)cc1O)CC2=O (stereo not drawn)	179 µM
COc1cc(O)c(C(C)=C(C)C)c2c1C(=O)CC(c1ccc(O)cc1)O2 (stereo not drawn)	358 µM
O=c1c(O)c(-c2ccc(O)cc2)oc2cc(O)cc(O)c12	12 µM
CC(C)=CCc1cc(C(=O)/C=C/c2ccc(O)cc2)c(O)cc1O [BROUSSOCHALCONE B]	11.1 µM
CC1(C)C=Cc2cc(C(=O)/C=C/c3ccc(O)c(O)c3)c(O)cc2O1	19.1 µM
